Results published in ChEMBL document CHEMBL1138015, “A 13C NMR approach to categorizing potential limitations of alpha,beta-unsaturated carbonyl systems in drug-like molecules” (Bioorg Med Chem Lett, 2004).

Legend:
[1] = molecular target: T1, Vascular endothelial growth factor receptor 2 (Homo sapiens, UniProt P35968); assay: Inhibition of Vascular endothelial growth factor receptor 2(KDR) with DTT (dithiothreitol)
[2] = molecular target: T1, Vascular endothelial growth factor receptor 2; assay: Inhibition of Vascular endothelial growth factor receptor 2(KDR) without DTT (dithiothreitol)
[3] = Percent remaining after incubation with NADPH in S9 cell was determined; assay type: ADME, cell-based

T1 sequence (P35968 whole entry): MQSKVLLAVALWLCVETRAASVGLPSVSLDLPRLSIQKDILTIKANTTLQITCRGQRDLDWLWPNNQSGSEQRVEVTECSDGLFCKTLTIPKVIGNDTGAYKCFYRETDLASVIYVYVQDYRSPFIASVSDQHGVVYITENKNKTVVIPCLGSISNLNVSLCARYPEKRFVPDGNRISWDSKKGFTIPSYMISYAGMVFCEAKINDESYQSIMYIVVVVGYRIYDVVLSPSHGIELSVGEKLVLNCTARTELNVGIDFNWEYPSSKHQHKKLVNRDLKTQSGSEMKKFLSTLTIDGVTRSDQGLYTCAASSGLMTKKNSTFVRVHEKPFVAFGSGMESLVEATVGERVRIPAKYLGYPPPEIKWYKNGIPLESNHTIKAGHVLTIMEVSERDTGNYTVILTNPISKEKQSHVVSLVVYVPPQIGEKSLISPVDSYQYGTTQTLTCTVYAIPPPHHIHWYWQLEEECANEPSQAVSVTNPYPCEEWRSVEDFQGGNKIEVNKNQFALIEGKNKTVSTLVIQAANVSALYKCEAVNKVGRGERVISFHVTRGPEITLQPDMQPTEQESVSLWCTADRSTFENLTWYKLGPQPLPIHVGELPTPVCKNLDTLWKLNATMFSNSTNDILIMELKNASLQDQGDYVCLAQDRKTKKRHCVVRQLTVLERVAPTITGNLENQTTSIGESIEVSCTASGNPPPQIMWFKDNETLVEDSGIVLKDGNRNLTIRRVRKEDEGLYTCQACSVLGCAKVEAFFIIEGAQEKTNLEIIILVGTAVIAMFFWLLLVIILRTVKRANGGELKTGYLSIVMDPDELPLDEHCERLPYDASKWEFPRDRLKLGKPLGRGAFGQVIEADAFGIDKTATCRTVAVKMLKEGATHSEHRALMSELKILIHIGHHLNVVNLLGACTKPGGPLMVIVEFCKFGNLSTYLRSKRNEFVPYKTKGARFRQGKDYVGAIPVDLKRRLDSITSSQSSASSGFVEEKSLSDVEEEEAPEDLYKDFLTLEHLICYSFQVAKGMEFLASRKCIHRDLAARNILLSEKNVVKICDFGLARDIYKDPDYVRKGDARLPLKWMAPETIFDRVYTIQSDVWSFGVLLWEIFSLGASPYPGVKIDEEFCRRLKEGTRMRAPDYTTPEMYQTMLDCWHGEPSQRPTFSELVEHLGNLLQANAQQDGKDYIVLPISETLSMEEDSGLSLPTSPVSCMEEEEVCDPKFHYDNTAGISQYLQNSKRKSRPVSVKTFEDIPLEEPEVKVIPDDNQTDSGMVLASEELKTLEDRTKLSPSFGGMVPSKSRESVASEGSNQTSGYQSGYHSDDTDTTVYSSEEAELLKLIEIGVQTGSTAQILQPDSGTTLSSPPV

IC50 [1]	IC50 [2]	Remaining activity [3]	SMILES
170 nM	720 nM	–	O=C1Nc2ccccc2S/C1=C\c1c[nH]c2c(C(=O)N3CCC(N4CCCCC4)CC3)cccc12
160 nM	290 nM	–	O=C1Nc2ccccc2S/C1=C\c1c[nH]c2cc(OCCN3CCOCC3)ccc12
840 nM	2500 nM	80%	CCN(CC)CCc1c(C)[nH]c(/C=C2\C(=O)NN=C2C2CC2)c1C
40000 nM	410 nM	–	O=C1NN=C(c2cnccn2)/C1=C/c1cc2ccccc2[nH]1
–	–	18%	Cc1[nH]c(/C=C2\C(=O)NN=C2c2cnccn2)c(C)c1CN(C)C
470 nM	20 nM	–	O=C1NN=C(c2cnccn2)/C1=C/c1[nH]c2ccccc2c1-c1ccccc1
140 nM	60 nM	–	Cc1c(/C=C2\C(=O)NN=C2c2cnccn2)[nH]c2ccccc12
80 nM	210 nM	72%	CCN(CC)CCc1c(C)[nH]c(/C=C2\C(=O)NN=C2c2cnccn2)c1C
